Results as given in patent US7528153B2, “Deoxynojirimycin analogues and their uses as glucosylceramidase inhibitors” (Genzyme Corporation, priority 2003, dated 2009).

Legend:
Maltase = experiment: In vitro inhibition of intestinal maltase; assay type: biochemical; conditions: Table 1
Bioavailability = assay type: in vivo; conditions: orally administered
Cellular toxicity = assay type: cell-based; conditions: at doses envisioned during therapy
Metabolism = conditions: in vivo
Hexosaminidase = experiment: In vitro inhibition of lysosomal hexosaminidase (4-MU substrate, purified enzyme from spleen); assay type: biochemical; conditions: Table 3, read-out: Apparent in vitro IC50 value, Hexosaminidase
A-Galactosidase = target: T1, A-Galactosidase (Homo sapiens, UniProt P06280); experiment: In vitro inhibition of lysosomal A-galactosidase (4-MU substrate, purified enzyme from spleen); assay type: biochemical; conditions: Table 3, read-out: Apparent in vitro IC50 value, A-Galactosidase
T1 construct: measured with appropriate 4-MU substrates using purified enzymes from spleen; from tissue; host or cells: spleen
T1 sequence (P06280 32-429): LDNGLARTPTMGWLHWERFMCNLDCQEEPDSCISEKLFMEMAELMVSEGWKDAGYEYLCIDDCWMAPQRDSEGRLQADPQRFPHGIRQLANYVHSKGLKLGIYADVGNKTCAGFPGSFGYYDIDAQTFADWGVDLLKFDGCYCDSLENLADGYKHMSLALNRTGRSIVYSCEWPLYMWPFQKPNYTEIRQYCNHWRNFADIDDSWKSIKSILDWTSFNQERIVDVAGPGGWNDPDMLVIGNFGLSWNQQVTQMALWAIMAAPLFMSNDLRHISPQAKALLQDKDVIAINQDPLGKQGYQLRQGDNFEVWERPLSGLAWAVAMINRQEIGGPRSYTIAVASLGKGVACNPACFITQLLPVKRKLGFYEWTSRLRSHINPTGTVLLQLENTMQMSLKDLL

b-Galactosidase = target: T2, b-Galactosidase (Homo sapiens, UniProt P16278); experiment: In vitro inhibition of lysosomal b-galactosidase (4-MU substrate, purified enzyme from spleen); assay type: biochemical; conditions: Table 3, read-out: Apparent in vitro IC50 value, A b-Galactosidase
T2 construct: measured with appropriate 4-MU substrates using purified enzymes from spleen; from tissue; host or cells: spleen
T2 sequence (P16278 29-677): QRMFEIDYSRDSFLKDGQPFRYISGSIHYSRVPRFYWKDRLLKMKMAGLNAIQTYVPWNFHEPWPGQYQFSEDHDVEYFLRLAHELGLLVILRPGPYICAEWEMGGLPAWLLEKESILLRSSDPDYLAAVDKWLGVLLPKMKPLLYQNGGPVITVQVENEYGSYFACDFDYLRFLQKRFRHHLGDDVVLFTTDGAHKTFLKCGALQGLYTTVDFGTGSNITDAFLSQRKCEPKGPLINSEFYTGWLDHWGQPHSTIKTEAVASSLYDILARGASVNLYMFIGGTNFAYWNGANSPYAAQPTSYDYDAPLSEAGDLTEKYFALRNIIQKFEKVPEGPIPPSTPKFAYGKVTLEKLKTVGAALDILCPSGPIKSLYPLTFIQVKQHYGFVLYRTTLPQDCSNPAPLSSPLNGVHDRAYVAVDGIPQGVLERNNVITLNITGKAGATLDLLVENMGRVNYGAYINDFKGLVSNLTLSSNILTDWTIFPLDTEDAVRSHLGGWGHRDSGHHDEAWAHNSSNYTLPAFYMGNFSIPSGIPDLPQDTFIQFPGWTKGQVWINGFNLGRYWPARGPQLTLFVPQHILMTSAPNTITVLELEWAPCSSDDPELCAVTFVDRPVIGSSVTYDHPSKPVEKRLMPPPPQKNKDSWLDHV

MEB4 culture = experiment: Pigmentation of MEB4 melanoma culture; assay type: cell-based, murine; conditions: inhibition of glycosphingolipid synthesis in MEB4 culture
From the text: Two melanoma cultures, one dark pigmented (An) and the other very lightly pigmented (M14) show a clearly higher content of glucosylceramide (GlcCer) in the darkly pigmented culture both in the total cell extract and in a melanosomal fraction.

human melanocytes = experiment: Pigmentation / melanin production in melanocytes; assay type: cell-based; conditions: melanocytes of lighter and darker skin type, within a single culture passage
From the text: Iminosugars were designed that harbour optimal features for use in skin. Ceramide and glucosylceramide are important structural components of the stratum corneum and regulate water permeability of the skin. It is known that glucosylceramides together with other polar lipids are secreted into the extracellular space of the stratum corneum by lamellar bodies and are subsequently processed to ceramides. […] Iminosugars should therefore not interfere with the crucial generation of ceramide from glucosylceramide catalysed by lysosomal glucocerebrosidase.
The pharmaceutical application of the deoxynojirimycin analogues according to the invention and will be in post-inflammatory hyperpigmentation and skin inflammatory conditions. There is strong evidence that when administered systemically these deoxynojirimycin analogues have strong anti-inflammatory activity in vivo.

[1] = target: T3, lysosomal alfa-glucosidase (Homo sapiens, UniProt P10253); experiment: In vitro inhibition of lysosomal alfa-glucosidase (4-MU substrate, purified enzyme from spleen); assay type: biochemical; conditions: Table 3, read-out: Apparent in vitro IC50 value, a-Glucosidase
T3 construct: measured with appropriate 4-MU substrates using purified enzymes from spleen; from tissue; host or cells: spleen

[2] = test system: glycosphingolipid synthesis; conditions: 100 mg TID, Gaucher patients; cited from earlier work

| Metabolism (Metabolism) | SMILES | IC50 (Maltase) [µM] | Bioavailability (Bioavailability) | Cellular toxicity (Cellular toxicity) | IC50 (Hexosaminidase) [µM] | IC50 (A-Galactosidase) [µM] | IC50 (b-Galactosidase) [µM] | Pigmentation of MEB4 culture (MEB4 culture) | Pigmentation / melanin production in melanocytes (human melanocytes) | Pigmentation / melanin production in melanocytes (human melanocytes; listed as ido-N-(5-adamantane-1-yl-methoxy-pentyl)deoxynojirimycin) | IC50 [1] [µM] | Inhibition of glycosphingolipid synthesis [2] |
| --- | --- | --- | --- | --- | --- | --- | --- | --- | --- | --- | --- | --- |
| metabolically inert | OC[C@@H]1[C@@H](O)[C@H](O)[C@@H](O)CN1CCCCCOCC12CC3CC(CC(C3)C1)C2 [N-(5-adamantane-1-yl-methoxy-pentyl)deoxynojirimycin, reference compound] | > 25 | highly bioavailable | no intrinsic cellular toxicity |  |  |  |  |  |  |  |  |
|  | OC[C@@H]1[C@H](O)[C@H](O)[C@H](O)CN1CCCCCOCC12CC3CC(CC(C3)C1)C2 [N-(adamantane-1-yl-methoxypentyl)-L-ido-deoxynojirimycin] | > 100 | well bioavailable | no cellular toxicity | > 100 | > 100 | > 100 | loss of pigmentation | reduce melanin production | significant decrease in pigmentation |  |  |
|  | CCCCN1C[C@H](O)[C@@H](O)[C@H](O)[C@H]1CO [N-butyl-deoxynojirimycin, reference compound] |  |  |  | > 100 |  | > 100 |  |  |  | 0.8 | 20-30% |
